Values of other authors as cited in patent publication US20210059959A1, “USE OF CANNABINOIDS IN THE TREATMENT OF MENTAL DISORDERS” (GW Pharma Limited, priority 2015, published 2021).

Test system: positive or negative symptoms of schizophrenia
Details: placebo-controlled clinical trial; cited from earlier work

Cc1c(C(=O)NN2CCCCC2)nn(-c2ccc(Cl)cc2Cl)c1-c1ccc(Cl)cc1 [rimonabant]
Effect on positive or negative symptoms of schizophrenia: no effect
